From ChEMBL document CHEMBL1132513, “Manipulation of the C(22)-C(27) region of rapamycin: stability issues and biological implications” (Bioorg Med Chem Lett, 1999)

Experiments:
[1] = organism: Mus musculus; test: In vitro ability to inhibit lymphoproliferation (LAF) in vitro using cells from the thymus of normal BALB/c mice; assay type: functional
[2] = Ability to bind to FK506 binding protein via its inhibition of peptidyl prolyl cis-trans isomerase activity (PPIase) inherent to FKBP
[3] = system: Mus musculus; test: Ability to prevent transplantation rejection in vivo in mouse skin graft model; assay type: functional
[4] = Half life was determined; assay type: ADME; conditions: rat
[5] = The activity in the LAF assay is best expressed as a ratio of the rapamycin IC50 (1-9 nM) /analogue IC50 (R/A); assay type: functional

| SMILES | IC50 [1] [nM] | IC50 [2] [nM] | Skin Graft Survival [3] | half-life [4] [h] | Ratio [5] | Survival [3] |
| --- | --- | --- | --- | --- | --- | --- |
| CO[C@H]1C[C@@H]2CC[C@@H](C)[C@@](O)(O2)C(=O)C(=O)N2CCCC[C@H]2C(=O)O[C@H]([C@H](C)C[C@@H]2CC[C@@H](O)[C@H](OC)C2)CC(=O)[C@H](C)/C=C(\C)[C@@H](O)[C@@H](OC)C(=O)[C@H](C)C[C@H](C)/C=C/C=C/C=C/1C [SIROLIMUS] | 3 | 15 | 12 | 13 | – | – |
| CO[C@H]1C[C@@H]2CC[C@@H](C)[C@@](O)(O2)C(=O)C(=O)N2CCCCC2(C)C(=O)O[C@H]([C@H](C)C[C@H]2CC[C@H](O)[C@@H](OC)C2)CC(=O)[C@H](C)/C=C(\C)[C@@H](O)[C@@H](OC)C(=O)[C@H](C)C[C@H](C)/C=C/C=C/C=C/1C (stereo not given in full) | 23 | 95 | – | 38.4 | 0.42 | 9.33 |
| CCC12CCCCN1C(=O)C(=O)[C@]1(O)O[C@@H](CC[C@H]1C)C[C@H](OC)/C(C)=C/C=C/C=C/[C@@H](C)C[C@@H](C)C(=O)[C@H](OC)[C@H](O)/C(C)=C/[C@@H](C)C(=O)C[C@@H]([C@H](C)C[C@H]1CC[C@H](O)[C@H](OC)C1)OC2=O (stereo not given in full) | 140 | 950 | – | – | 0.07 | – |
| CO[C@H]1C[C@@H]2CC[C@@H](C)[C@@](O)(O2)C(=O)C(=O)N2CCCC[C@H]2C(=O)O[C@H]([C@H](C)C[C@H]2CC[C@H](O)[C@@H](OC)C2)C[C@@H](OC(C)=O)[C@H](C)/C=C(\C)[C@@H](O)[C@@H](OC)C(=O)[C@H](C)C[C@H](C)/C=C/C=C/C=C/1C | 99 | – | – | 34 | 0.08 | – |
| CO[C@H]1C[C@@H]2CC[C@@H](C)[C@@](O)(O2)C(=O)C(=O)N2CCCC[C@H]2C(=O)O[C@H]([C@H](C)C[C@H]2CC[C@H](O)[C@@H](OC)C2)CC(O)[C@H](C)/C=C(\C)[C@@H](O)[C@@H](OC)C(=O)[C@H](C)C[C@H](C)/C=C/C=C/C=C/1C (stereo not given in full) | 3.7 | 22 | 8.5 | 17.5 | 1.3 | – |
| CO[C@H]1C[C@@H]2CC[C@@H](C)[C@@](O)(O2)C(=O)C(=O)N2CCCCC2(C)C(=O)O[C@H]([C@H](C)C[C@H]2CC[C@H](O)[C@@H](OC)C2)CC(O)[C@H](C)/C=C(\C)[C@@H](O)[C@@H](OC)C(=O)[C@H](C)C[C@H](C)/C=C/C=C/C=C/1C (stereo not given in full) | 9.9 | 150 | – | 14.6 | 0.23 | 7 |
| CO[C@H]1C[C@@H]2CC[C@@H](C)[C@@](O)(O2)C(=O)C(=O)N2CCCC[C@H]2C(=O)O[C@H](C[C@H](O)[C@H](C)C[C@@H]2CC[C@@H](O)[C@H](OC)C2)[C@H](C)/C=C(\C)[C@@H](O)[C@@H](OC)C(=O)[C@H](C)C[C@H](C)/C=C/C=C/C=C/1C | 16 | 310 | – | 21.6 | 0.42 | 7 |
